Molecules are shown by their SMILES.

The assay concerns the target T1, Axl (Homo sapiens, UniProt P30530).
T1 sequence (P30530 26-894): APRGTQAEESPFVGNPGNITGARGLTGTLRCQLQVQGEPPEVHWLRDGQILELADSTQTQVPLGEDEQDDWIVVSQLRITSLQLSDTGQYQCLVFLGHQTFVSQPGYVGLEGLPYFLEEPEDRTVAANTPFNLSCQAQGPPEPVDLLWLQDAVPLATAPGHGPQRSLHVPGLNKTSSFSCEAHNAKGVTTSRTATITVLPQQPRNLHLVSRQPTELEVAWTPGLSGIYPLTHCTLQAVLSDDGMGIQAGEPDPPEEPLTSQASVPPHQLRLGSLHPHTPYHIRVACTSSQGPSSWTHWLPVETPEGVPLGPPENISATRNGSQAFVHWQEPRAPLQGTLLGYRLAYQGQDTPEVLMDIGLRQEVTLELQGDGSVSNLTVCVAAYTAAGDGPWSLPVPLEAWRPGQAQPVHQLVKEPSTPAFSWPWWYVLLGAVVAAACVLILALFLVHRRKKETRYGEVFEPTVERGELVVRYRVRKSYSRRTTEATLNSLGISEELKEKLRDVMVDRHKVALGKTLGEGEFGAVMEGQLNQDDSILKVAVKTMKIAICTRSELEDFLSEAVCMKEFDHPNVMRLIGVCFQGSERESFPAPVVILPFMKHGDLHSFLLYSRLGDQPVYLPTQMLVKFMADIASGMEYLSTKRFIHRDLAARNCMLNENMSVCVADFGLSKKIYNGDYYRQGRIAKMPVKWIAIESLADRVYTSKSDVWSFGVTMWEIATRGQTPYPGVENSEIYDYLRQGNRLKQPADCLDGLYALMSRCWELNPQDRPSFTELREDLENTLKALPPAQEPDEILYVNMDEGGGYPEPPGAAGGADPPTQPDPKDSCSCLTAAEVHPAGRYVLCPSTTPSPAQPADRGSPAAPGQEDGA
As to the kind of experiment: Axl NanoBRET intracellular kinase assay (intracellular binding, Cell Binding). Also on record: host or cells: HEK-293. Conditions: HEK-293 cells transfected with Axl-NanoLuc fusion vector; 0.35 μM K-5 NanoBRET tracer. The procedure: Axl NanoBRET™ intracellular kinase assay (Promega, N2540) was performed according to manufacturer's recommendation. In brief, HEK-293 cells are transiently transfected with Axl-NanoLuc fusion vector (Promega, NV1071), utilizing Fugene HD transfection reagent (Promega, E2311) a day before experiment following manufacturer's recommendation.
The day of the assay, the cells were collected and resuspended in Opti-MEM media (ThermoFisher, 31985070) at 2e5 cells/mL concentration. Testing compounds were serial diluted and dispensed into a white 384 well polystyrene plate at 200 nL in 100% DMSO. 40 μL of resuspended cells is then added per well for a final condition of 8K cells/well with 0.5% DMSO. After one-hour compound pre-incubation at 37° C. and 5% CO2, cells were further incubated with 0.35 μM K-5 NanoBRET tracer for two-hours at 37° C. and 5% CO2. […] of 3× substrate plus Inhibitor solution was prepared according to kits manual and added to the cells followed by a 30 second pulse centrifugation spin. The plate was then immediately read utilizing an Envision (Perkin Elmer) plate reader. The BRET signal is measured by taking the ratio of the emissions reading at 610 nm and 450 nm. Compound binding is based on the decrease BRET signal caused by the displacement of the K-5 tracer. […] IC50 value of compounds was determined by 4-parameter non-linear regression fitting of percent activity in GraphPad Prism software.
(In general: Bioluminescence resonance energy transfer reports proximity on the nanometre scale.)
For orientation: IC50 means the point on the concentration scale where inhibition reaches its midpoint. A low value points to inhibition by little substance. With `C[C@@H]1CCCN1C1CCc2ccc(-c3cnc4[nH]nc(-c5ccc(C(C)(C)O)c(C(F)(F)F)c5)c4c3)cc2CC1` (stereo partly drawn) [Example 20, 2-[4-(5-{7-[(2R)-2-Methylpyrrolidin-1-yl]-6,7,8,9-tetrahydro-5H-benzo[7]annulen-2-yl}-1H-pyrazolo[3,4-b]pyridin-3-yl)-2-(trifluoromethyl)phenyl]propan-2-ol], the IC50 is < 100 nM.

Regarding `CC(C)(O)c1ccc(-c2n[nH]c3ncc(-c4ccc5c(c4)CCC(N4CCC[C@@H]4CO)CC5)cc23)cc1Cl` (stereo partly drawn) [Example 21, 2-[2-Chloro-4-(5-{7-[(2R)-2-(hydroxymethyl)pyrrolidin-1-yl]-6,7,8,9-tetrahydro-5H-benzo[7]annulen-2-yl}-1H-pyrazolo[3,4-b]pyridin-3-yl)phenyl]propan-2-ol], the IC50 is < 100 nM.

As for `C[C@@H]1CCCN1C1(C)CCc2ccc(-c3cnc4[nH]nc(-c5ccc(C(C)(C)O)nc5)c4c3)cc2CC1` (stereo partly drawn) [Example 22, 2-[5-(5-{7-Methyl-7-[(2R)-2-methylpyrrolidin-1-yl]-6,7,8,9-tetrahydro-5H-benzo[7]annulen-2-yl}-1H-pyrazolo[3,4-b]pyridin-3-yl)pyridin-2-yl]propan-2-ol], the IC50 was < 100 nM.

As to `CS(=O)(=O)N1CCC(c2n[nH]c3ncc(-c4ccc5c(c4)CCC(N4CCCC4)CC5)cc23)CC1` (stereo not drawn) [Example 23, 1-Methanesulfonyl-4-{5-[7-(pyrrolidin-1-yl)-6,7,8,9-tetrahydro-5H-benzo[7]annulen-2-yl]-1H-pyrazolo[3,4-b]pyridin-3-yl}piperidine], the IC50 lay in the range of 100 to 1000 nM.

As for `C[C@H]1CCCN1C1CCc2ccc(-c3cnc4[nH]nc(-c5ccc(S(=O)(=O)C6CC6)cc5)c4c3)cc2CC1` (stereo partly drawn) [Example 24, 3-(4-(Cyclopropylsulfonyl)phenyl)-5-(7-((S)-2-methylpyrrolidin-1-yl)-6,7,8,9-tetrahydro-5H-benzo[7]annulen-2-yl)-1H-pyrazolo[3,4-b]pyridine], the IC50 was < 100 nM.

Take `C[C@@H]1CCCN1C1(C)CCc2ccc(-c3cnc4[nH]nc(-c5ccc(S(=O)(=O)C6CC6)c(F)c5)c4c3)cc2CC1` (stereo partly drawn) [Example 25, (2R)-1-(2-{3-[4-(Cyclopropanesulfonyl)-3-fluorophenyl]-1H-pyrazolo[3,4-b]pyridin-5-yl}-7-methyl-6,7,8,9-tetrahydro-5H-benzo[7]annulen-7-yl)-2-methylpyrrolidine]: the 50% inhibitory concentration (IC50) is < 100 nM.

The compound `O=S(=O)(c1ccc(-c2n[nH]c3ncc(-c4ccc5c(c4)CCN(C4CCOCC4)CC5)cc23)cc1)C1CC1` [Example 26, 7-{3-[4-(Cyclopropanesulfonyl)phenyl]-1H-pyrazolo[3,4-b]pyridin-5-yl}-3-(oxan-4-yl)-2,3,4,5-tetrahydro-1H-3-benzazepine] came in with an IC50 of 100 to 1000 nM.

Turning to `O=S(=O)(c1ccc(-c2n[nH]c3ncc(-c4ccc5c(c4)CCN(CC4CCOC4)CC5)cc23)cc1)C1CC1` (stereo not drawn) [Example 27, 7-{3-[4-(Cyclopropanesulfonyl)phenyl]-1H-pyrazolo[3,4-b]pyridin-5-yl}-3-[(oxolan-3-yl)methyl]-2,3,4,5-tetrahydro-1H-3-benzazepine], the IC50 lay within 100 to 1000 nM.

`CS(=O)(=O)c1ccc(-c2n[nH]c3ncc(-c4ccc5c(c4)CCN(C4CCCC4)CC5)cc23)cc1` [Example 30, 3-Cyclopentyl-7-(3-(4-(methylsulfonyl)phenyl)-1H-pyrazolo[3,4-b]pyridin-5-yl)-2,3,4,5-tetrahydro-1H-benzo[d]azepine] displayed an IC50 of 100 to 1000 nM.

Take `CS(=O)(=O)c1ccc(-c2n[nH]c3ncc(-c4ccc5c(c4)CCN(C4CCCC4)CC5)cc23)cc1Cl` [Example 31, 7-(3-(3-Chloro-4-(methylsulfonyl)phenyl)-1H-pyrazolo[3,4-b]pyridin-5-yl)-3-cyclopentyl-2,3,4,5-tetrahydro-1H-benzo[d]azepine]: the IC50 was in the range of 100 to 1000 nM.

Compound `CS(=O)(=O)c1ccc(-c2n[nH]c3ncc(-c4ccc5c(c4)CCN(C4CCCC4)CC5)cc23)cc1F` [Example 32, 3-Cyclopentyl-7-(3-(3-fluoro-4-(methylsulfonyl)phenyl)-1H-pyrazolo[3,4-b]pyridin-5-yl)-2,3,4,5-tetrahydro-1H-benzo[d]azepine] showed an IC50 of 100 to 1000 nM.

With `COCCN1CCc2ccc(-c3cnc4[nH]nc(-c5ccc(C(C)(C)O)c(Cl)c5)c4c3)cc2CC1` [Example 34, 2-(2-Chloro-4-(5-(3-(2-methoxyethyl)-2,3,4,5-tetrahydro-1H-benzo[d]azepin-7-yl)-1H-pyrazolo[3,4-b]pyridin-3-yl)phenyl)propan-2-ol], the 50% inhibitory concentration (IC50) is > 1000 nM.

On to `C[C@@H]1CCCN1C1CCc2ccc(-c3cnc4[nH]nc(-c5ccc(C(C)(C)O)c(Cl)c5)c4c3)cc2CC1` (stereo partly drawn) [Example 35, 2-(2-Chloro-4-(5-(7-((R)-2-methylpyrrolidin-1-yl)-6,7,8,9-tetrahydro-5H-benzo[7]annulen-2-yl)-1H-pyrazolo[3,4-b]pyridin-3-yl)phenyl)propan-2-ol], for which the IC50 is < 100 nM.

Regarding `C[C@H]1CCCN1C1CCc2ccc(-c3cnc4[nH]nc(-c5ccc(S(C)(=O)=O)cc5)c4c3)cc2CC1` (stereo partly drawn) [Example 36, 5-(7-((S)-2-Methylpyrrolidin-1-yl)-6,7,8,9-tetrahydro-5H-benzo[7]annulen-2-yl)-3-(4-(methylsulfonyl)phenyl)-1H-pyrazolo[3,4-b]pyridine], the IC50 was < 100 nM.

With `C[C@H]1CCCN1C1CCc2ccc(-c3cnc4[nH]nc(-c5ccc(C(C)(C)O)c(Cl)c5)c4c3)cc2CC1` (stereo partly drawn) [Example 37, 2-(2-Chloro-4-(5-(7-((S)-2-methylpyrrolidin-1-yl)-6,7,8,9-tetrahydro-5H-benzo[7]annulen-2-yl)-1H-pyrazolo[3,4-b]pyridin-3-yl)phenyl)propan-2-ol], the IC50 was < 100 nM.

Regarding `C[C@@H]1CCCN1C1CCc2ccc(-c3cnc4[nH]nc(-c5ccc(S(C)(=O)=O)cc5)c4c3)cc2CC1` (stereo partly drawn) [Example 38, 5-(7-((R)-2-Methylpyrrolidin-1-yl)-6,7,8,9-tetrahydro-5H-benzo[7]annulen-2-yl)-3-(4-(methylsulfonyl)phenyl)-1H-pyrazolo[3,4-b]pyridine], the IC50 was < 100 nM.

With `C[C@@H]1CCCN1C1CCc2ccc(-c3cnc4[nH]nc(-c5ccc(S(=O)(=O)C6CC6)cc5)c4c3)cc2CC1` (stereo partly drawn) [Example 39, 3-(4-(Cyclopropylsulfonyl)phenyl)-5-(7-((R)-2-methylpyrrolidin-1-yl)-6,7,8,9-tetrahydro-5H-benzo[7]annulen-2-yl)-1H-pyrazolo[3,4-b]pyridine], the IC50 is < 100 nM.

For `O=S(=O)(c1ccc(-c2n[nH]c3ncc(-c4ccc5c(c4)CC[C@@H](N4CCCC4)CC5)cc23)cc1)C1CC1` [Example 40, (S)-3-(4-(Cyclopropylsulfonyl)phenyl)-5-(7-(pyrrolidin-1-yl)-6,7,8,9-tetrahydro-5H-benzo[7]annulen-2-yl)-1H-pyrazolo[3,4-b]pyridine], the IC50 is < 100 nM.

`CCS(=O)(=O)c1ccc(-c2n[nH]c3ncc(-c4ccc5c(c4)CC[C@@H](N4CCCC4)CC5)cc23)cc1` [Example 41, (S)-3-(4-(Ethylsulfonyl)phenyl)-5-(7-(pyrrolidin-1-yl)-6,7,8,9-tetrahydro-5H-benzo[7]annulen-2-yl)-1H-pyrazolo[3,4-b]pyridine]: the IC50 was < 100 nM.

In the case of `CC(C)S(=O)(=O)c1ccc(-c2n[nH]c3ncc(-c4ccc5c(c4)CC[C@@H](N4CCCC4)CC5)cc23)cc1` [Example 42, (S)-3-(4-(Isopropylsulfonyl)phenyl)-5-(7-(pyrrolidin-1-yl)-6,7,8,9-tetrahydro-5H-benzo[7]annulen-2-yl)-1H-pyrazolo[3,4-b]pyridine], the IC50 is < 100 nM.

In turn, `C[C@@H]1CCCN1C1(C)CCc2ccc(-c3cnc4[nH]nc(-c5ccc(S(=O)(=O)C6CCCC6)cc5)c4c3)cc2CC1` (stereo partly drawn) [Example 45, 3-(4-(Cyclopentylsulfonyl)phenyl)-5-(7-methyl-7-((R)-2-methylpyrrolidin-1-yl)-6,7,8,9-tetrahydro-5H-benzo[7]annulen-2-yl)-1H-pyrazolo[3,4-b]pyridine] showed an IC50 of 100 to 1000 nM.

Values taken from patent US20240246967A1, “AXL COMPOUNDS” (ARCUS BIOSCIENCES, INC., priority 2021, published 2024).
